Assay results taken from PMC6222516 (Molecules : A Journal of Synthetic Chemistry and Natural …, 2018).

How the values were obtained:
[1] = molecular target: adenosine A2A receptor (Homo sapiens, UniProt P29274); conditions: read-out: % Inhib. 10 μM A2A
Experimental: As the standard control for the studied receptor-binding CGS15943, non-nucleoside agonist was applied. Non-specific binding was determined in the presence of NECA.
(§1) The 10 mM stock solutions were prepared by dissolving 0.5–1 mg of the tested compounds in suitable volume of DMSO. Next, dilutions in binding buffer were prepared to obtain concentration ranges 10^−10–10^−5 or 10^−9–10^−4 depending upon the compound potency. The concentration-response curves of the standard controls were made.
Non-specific binding was determined in the presence of NECA 50 μM (Sigma E2387, St. Louis, MO, USA).

[2] = molecular target: T1, adenosine A3 receptor (Homo sapiens, UniProt P0DMS8); test: Radioligand competition binding assay, adenosine A3 receptor ([3H]-NECA); parameters: PEI (potency efficiency index), ligand efficiency for A3 receptor: dose or concentration left out as unconfirmed; conditions: for PEI (potency efficiency index), ligand efficiency for A3 receptor: PEI = (inhibition, ratio) / (MW, kD); for inhibition at 10 µM: read-out: % Inhib. 10 μM A3
T1 sequence (P0DMS8 1-318): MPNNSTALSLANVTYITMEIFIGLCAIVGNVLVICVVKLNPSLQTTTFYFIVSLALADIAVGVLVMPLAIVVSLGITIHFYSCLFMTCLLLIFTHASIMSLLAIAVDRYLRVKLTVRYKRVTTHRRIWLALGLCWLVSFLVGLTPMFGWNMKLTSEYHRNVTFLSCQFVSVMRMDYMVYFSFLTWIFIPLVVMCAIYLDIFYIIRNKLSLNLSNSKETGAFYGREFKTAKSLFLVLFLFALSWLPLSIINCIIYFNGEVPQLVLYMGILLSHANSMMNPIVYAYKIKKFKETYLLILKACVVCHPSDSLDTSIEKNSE
Experimental: as §1
Non-specific binding was determined in the presence of R-PIA 100 μM (Sigma P4532, St. Louis, MO, USA). The reaction mixture (Vt: 200 μL/well) was incubated at 25 °C for 180 min, after was filtered and washed six times with 250 μL wash buffer (Tris-HCl 50 mM pH = 7.4), before measuring in a microplate beta scintillation counter (Microbeta Trilux, PerkinElmer, Madrid, Spain).

adenosine A2A receptor, sequence (P29274 whole entry): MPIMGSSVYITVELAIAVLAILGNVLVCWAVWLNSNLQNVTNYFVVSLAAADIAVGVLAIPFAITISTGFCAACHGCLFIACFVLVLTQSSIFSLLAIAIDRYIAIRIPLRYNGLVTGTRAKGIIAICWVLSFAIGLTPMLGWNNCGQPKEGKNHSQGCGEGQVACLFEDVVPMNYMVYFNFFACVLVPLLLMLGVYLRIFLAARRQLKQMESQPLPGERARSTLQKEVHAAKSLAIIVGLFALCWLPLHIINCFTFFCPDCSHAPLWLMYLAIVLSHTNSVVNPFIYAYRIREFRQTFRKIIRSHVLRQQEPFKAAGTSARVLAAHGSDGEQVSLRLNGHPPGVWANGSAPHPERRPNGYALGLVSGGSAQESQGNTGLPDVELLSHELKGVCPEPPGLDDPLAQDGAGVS

inhibition at 10 µM [1]	PEI (potency efficiency index), ligand efficiency for A3 receptor [2]	inhibition at 10 µM [2]	Ki [2]	SMILES
3 ± 1%	0.20	5 ± 1%		Nc1ncnc2c1ncn2[C@H]1C[C@H](O)[C@@H](CO)O1 [2′-deoxyadenosine, reference compound]
32 ± 1%	2.54	98 ± 1%	7.5 nM	OC[C@H]1O[C@@H](n2cnc3c(NCCCc4ccccc4)ncnc32)[C@H](O)[C@@H]1O [Compound 4]
2 ± 1%	1.61	67 ± 1%	2210 nM	Nc1ncnc2c1ncn2[C@@H]1O[C@H](CO)[C@@H](O)[C@H]1OCOCCCc1ccccc1 [Compound 12, 2′-O-(3-Phenylpropyleneoxymethyl)-adenosine]
	2.51			CC[C@@H]1Cn2c(c3nc(-c4cc(Cl)cc(Cl)c4Cl)nc-3n(C)c2=O)N1.Cl [PSB 10 hydrochloride, reference compound]
